ChEMBL document CHEMBL5096191 (J Med Chem, 2021)

Legend:
Assay type in all cases: functional, cell-based
[1] = tested on: Cannabinoid receptor 2 (Homo sapiens), P34972 [V113M]; test: Partial agonist activity at CBR2 V1133.32M mutant (unknown origin) stably expressed in HEK293T assessed as decrease in forskolin induced cAMP level preincubated for 15 mins followed by forskolin addition incubated for 15 mins in presence of cannabidiol by HTRF assay relative to control; conditions: filed as partial agonist, time 30.0 min
Chain of Cannabinoid receptor 2 (Homo sapiens), P34972 [V113M] (P34972 whole entry V113M): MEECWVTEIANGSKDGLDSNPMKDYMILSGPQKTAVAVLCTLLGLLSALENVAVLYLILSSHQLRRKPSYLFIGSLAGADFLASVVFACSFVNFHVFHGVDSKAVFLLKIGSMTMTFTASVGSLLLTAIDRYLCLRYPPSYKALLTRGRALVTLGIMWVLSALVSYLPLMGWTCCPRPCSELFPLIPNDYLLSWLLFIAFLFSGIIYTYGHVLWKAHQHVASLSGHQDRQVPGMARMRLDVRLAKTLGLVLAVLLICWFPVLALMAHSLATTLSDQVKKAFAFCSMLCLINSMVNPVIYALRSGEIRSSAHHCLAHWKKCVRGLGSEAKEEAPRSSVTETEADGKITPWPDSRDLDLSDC

Cannabinoid receptor 2 [2] = molecular target: T1, Cannabinoid receptor 2 (Homo sapiens, UniProt P34972, V36M); test: Partial agonist activity at CBR2 V361.35M mutant (unknown origin) stably expressed in HEK293T assessed as decrease in forskolin induced cAMP level preincubated for 15 mins followed by forskolin addition incubated for 15 mins by HTRF assay
T1 sequence (P34972 whole entry V36M): as the sequence (P34972 whole entry V113M) above, with V36M, M113V counted along it

[3] = tested on: Cannabinoid receptor 2 (Homo sapiens), P34972 [V36M]; test: Partial agonist activity at CBR2 V361.35M mutant (unknown origin) stably expressed in HEK293T assessed as decrease in forskolin induced cAMP level preincubated for 15 mins followed by forskolin addition incubated for 15 mins by HTRF assay relative to control; conditions: filed as partial agonist, time 30.0 min
Chain of Cannabinoid receptor 2 (Homo sapiens), P34972 [V36M] (P34972 whole entry V36M): as the sequence (P34972 whole entry V113M) above, with V36M, M113V counted along it

Cannabinoid receptor 2 [4] = molecular target: Cannabinoid receptor 2 (Homo sapiens, UniProt P34972, A282M); test: Partial agonist activity at CBR2 A2827.36M mutant (unknown origin) stably expressed in HEK293T assessed as decrease in forskolin induced cAMP level preincubated for 15 mins followed by forskolin addition incubated for 15 mins by HTRF assay
Chain of Cannabinoid receptor 2 (Homo sapiens, UniProt P34972, A282M) (P34972 whole entry A282M): as the sequence (P34972 whole entry V113M) above, with M113V, A282M counted along it

[5] = tested on: Cannabinoid receptor 2 (Homo sapiens), P34972 [A282M]; test: Partial agonist activity at CBR2 A2827.36M mutant (unknown origin) stably expressed in HEK293T assessed as decrease in forskolin induced cAMP level preincubated for 15 mins followed by forskolin addition incubated for 15 mins by HTRF assay relative to control; conditions: filed as partial agonist, time 30.0 min
Chain of Cannabinoid receptor 2 (Homo sapiens), P34972 [A282M] (P34972 whole entry A282M): as the sequence (P34972 whole entry V113M) above, with M113V, A282M counted along it

[6] = tested on: Cannabinoid receptor 2 (Homo sapiens), P34972 [A282M]; test: Partial agonist activity at CBR2 A2827.36M mutant (unknown origin) stably expressed in HEK293T assessed as decrease in forskolin induced cAMP level preincubated for 15 mins followed by forskolin addition incubated for 15 mins in presence of cannabidiol by HTRF assay relative to control; conditions: filed as partial agonist, time 30.0 min
Cannabinoid receptor 2 [7] = molecular target: T2, Cannabinoid receptor 2 (Homo sapiens, UniProt P34972, S285L); test: Partial agonist activity at CBR2 S2857.39L mutant (unknown origin) stably expressed in HEK293T assessed as decrease in forskolin induced cAMP level preincubated for 15 mins followed by forskolin addition incubated for 15 mins in presence of cannabidiol by HTRF assay
T2 sequence (P34972 whole entry S285L): as the sequence (P34972 whole entry V113M) above, with M113V, S285L counted along it

[8] = tested on: Cannabinoid receptor 2 (Homo sapiens), P34972 [S285L]; test: Partial agonist activity at CBR2 S2857.39L mutant (unknown origin) stably expressed in HEK293T assessed as decrease in forskolin induced cAMP level preincubated for 15 mins followed by forskolin addition incubated for 15 mins in presence of cannabidiol by HTRF assay relative to control; conditions: filed as partial agonist, time 30.0 min
Chain of Cannabinoid receptor 2 (Homo sapiens), P34972 [S285L] (P34972 whole entry S285L): as the sequence (P34972 whole entry V113M) above, with M113V, S285L counted along it

Cannabinoid receptor 2 [9] = molecular target: T3, Cannabinoid receptor 2 (Homo sapiens, UniProt P34972); test: Partial agonist activity at wild type CB2 receptor (unknown origin) expressed in HEK293T assessed as increase in ERK1/2 phosphorylation incubated for 7 mins by AlphaScreenSureFire method
T3 sequence (P34972 whole entry): as the sequence (P34972 whole entry V113M) above, with M113V counted along it

Cannabinoid receptor 2 [10] = molecular target: T3, Cannabinoid receptor 2; test: Partial agonist activity at wild type CB2 receptor (unknown origin) expressed in HEK293T assessed as increase in ERK1/2 phosphorylation incubated for 7 mins in presence of cannabidiol by AlphaScreenSureFire method
Cannabinoid receptor 2 [11] = molecular target: T3, Cannabinoid receptor 2; test: Partial agonist activity at wild type CB2 receptor (unknown origin) expressed in HEK293T assessed as increase in ERK1/2 phosphorylation incubated for 7 mins by AlphaScreenSureFire method relative to control; conditions: filed as partial agonist
Cannabinoid receptor 2 [12] = molecular target: T3, Cannabinoid receptor 2; test: Partial agonist activity at wild type CB2 receptor (unknown origin) expressed in HEK293T assessed as increase in ERK1/2 phosphorylation incubated for 7 mins in presence of cannabidiol by AlphaScreenSureFire method relative to control; conditions: filed as partial agonist
[13] = tested on: Cannabinoid receptor 2 (Homo sapiens), P34972 [V36M]; test: Partial agonist activity at CBR2 V361.35M mutant (unknown origin) expressed in HEK293T assessed as increase in ERK1/2 phosphorylation incubated for 7 mins by AlphaScreenSureFire method relative to control; conditions: filed as partial agonist
[14] = tested on: Cannabinoid receptor 2 (Homo sapiens), P34972 [V36M]; test: Partial agonist activity at CBR2 V361.35M mutant (unknown origin) expressed in HEK293T assessed as increase in ERK1/2 phosphorylation incubated for 7 mins in presence of cannabidiol by AlphaScreenSureFire method relative to control; conditions: filed as partial agonist
[15] = tested on: Cannabinoid receptor 2 (Homo sapiens), P34972 [A282M]; test: Partial agonist activity at CBR2 A2827.36M mutant (unknown origin) expressed in HEK293T assessed as increase in ERK1/2 phosphorylation incubated for 7 mins in presence of cannabidiol by AlphaScreenSureFire method relative to control; conditions: filed as partial agonist
Cannabinoid receptor 2 [16] = molecular target: T2, Cannabinoid receptor 2; test: Partial agonist activity at CBR2 S2857.39L mutant (unknown origin) expressed in HEK293T assessed as increase in ERK1/2 phosphorylation incubated for 7 mins by AlphaScreenSureFire method
Cannabinoid receptor 2 [17] = molecular target: T2, Cannabinoid receptor 2; test: Partial agonist activity at CBR2 S2857.39L mutant (unknown origin) expressed in HEK293T assessed as increase in ERK1/2 phosphorylation incubated for 7 mins in presence of cannabidiol by AlphaScreenSureFire method
[18] = tested on: Cannabinoid receptor 2 (Homo sapiens), P34972 [S285L]; test: Partial agonist activity at CBR2 S2857.39L mutant (unknown origin) expressed in HEK293T assessed as increase in ERK1/2 phosphorylation incubated for 7 mins by AlphaScreenSureFire method relative to control; conditions: filed as partial agonist
Cannabinoid receptor 2 [19] = molecular target: T3, Cannabinoid receptor 2; test: Partial agonist activity at wild type CB2 receptor (unknown origin) expressed in HEK293T assessed as increase in picometer shifts of reflected light wavelengths by DMR assay
Cannabinoid receptor 2 [20] = molecular target: T3, Cannabinoid receptor 2; test: Partial agonist activity at wild type CB2 receptor (unknown origin) expressed in HEK293T assessed as increase in picometer shifts of reflected light wavelengths in presence of cannabidiol by DMR assay relative to control; conditions: filed as partial agonist
Cannabinoid receptor 2 [21] = molecular target: Cannabinoid receptor 2 (Homo sapiens, UniProt P34972, V113M); test: Partial agonist activity at CBR2 V1133.32M mutant (unknown origin) expressed in HEK293T assessed as increase in picometer shifts of reflected light wavelengths in presence of cannabidiol by DMR assay
Chain of Cannabinoid receptor 2 (Homo sapiens, UniProt P34972, V113M) (P34972 whole entry V113M): as the sequence (P34972 whole entry V113M) above

Cannabinoid receptor 2 [22] = molecular target: T1, Cannabinoid receptor 2; test: Partial agonist activity at CBR2 V361.35M mutant (unknown origin) expressed in HEK293T assessed as increase in picometer shifts of reflected light wavelengths by DMR assay
Cannabinoid receptor 2 [23] = molecular target: T1, Cannabinoid receptor 2; test: Partial agonist activity at CBR2 V361.35M mutant (unknown origin) expressed in HEK293T assessed as increase in picometer shifts of reflected light wavelengths in presence of cannabidiol by DMR assay
[24] = tested on: Cannabinoid receptor 2 (Homo sapiens), P34972 [V36M]; test: Partial agonist activity at CBR2 V361.35M mutant (unknown origin) expressed in HEK293T assessed as increase in picometer shifts of reflected light wavelengths by DMR assay relative to control; conditions: filed as partial agonist
[25] = tested on: Cannabinoid receptor 2 (Homo sapiens), P34972 [V36M]; test: Partial agonist activity at CBR2 V361.35M mutant (unknown origin) expressed in HEK293T assessed as increase in picometer shifts of reflected light wavelengths in presence of cannabidiol by DMR assay relative to control; conditions: filed as partial agonist
[26] = tested on: Cannabinoid receptor 2 (Homo sapiens), P34972 [A282M]; test: Partial agonist activity at CBR2 A2827.36M mutant (unknown origin) expressed in HEK293T assessed as increase in picometer shifts of reflected light wavelengths in presence of cannabidiol by DMR assay relative to control; conditions: filed as partial agonist

Work on `CCCC(C)(C)c1cc(O)c2c(c1)OC(C)(C)[C@@H]1CC=C(C)C[C@@H]21` yielded an Emax [1] of 77.8%, an EC50 (Cannabinoid receptor 2 [2]) of 12.6 nM and an Emax [3] of 56.7%. For the same compound, the EC50 (Cannabinoid receptor 2 [4]) was 12.6 nM, the Emax [5] was 45.4% and the Emax [6] was 48.8%. For the same compound, the EC50 (Cannabinoid receptor 2 [7]) was 39.8 nM, the Emax [8] was 57.4% and the EC50 (Cannabinoid receptor 2 [9]) was 7.94 nM. It also gave an EC50 (Cannabinoid receptor 2 [10]) of 7.94 nM, an Emax (Cannabinoid receptor 2 [11]) of 322% and an Emax (Cannabinoid receptor 2 [12]) of 250%. For the same compound, the Emax [13] was 363%, the Emax [14] was 353% and the Emax [15] was 352%. The EC50 (Cannabinoid receptor 2 [16]) was 39.8 nM, the EC50 (Cannabinoid receptor 2 [17]) was 31.6 nM and the Emax [18] was 374%. The EC50 (Cannabinoid receptor 2 [19]) was 631 nM, the Emax (Cannabinoid receptor 2 [20]) was 117% and the EC50 (Cannabinoid receptor 2 [21]) was 398 nM. The EC50 (Cannabinoid receptor 2 [22]) was 631 nM, the EC50 (Cannabinoid receptor 2 [23]) was 631 nM and the Emax [24] was 193%. The Emax [25] was 200% and the Emax [26] was 189%.
